# Data published in PMC9835529, “Investigation of Novel Quinoline–Thiazole Derivatives as Antimicrobial Agents: In Vitro and In Silico Approaches” (ACS Omega, 2022).
# Where two headings read alike, the source gives them in different places.
# Columns and labels:
# Candida krusei ATCC 6258 = assay: Anticandidal broth microdilution (EUCAST EDef 7.1), MIC90; assay type: cell-based
# Description: (§1) E. coli (ATCC 35218), E. coli (ATCC 25922), S. aureus (ATCC 6538), methicillin-resistant S. aureus (MRSA) (clinical isolate), S. typhimurium (ATCC 13311), and K. pneumoniae (NCTC 9633) cells for antibacterial effect, and C. albicans (ATCC 24433), C. glabrata (ATCC 90030), C. krusei (ATCC 6258), and C. parapsilosis (ATCC 22019) for the antifungal effect of the final compounds were used to determine the MIC90 values. The broth microdilution procedure specified in the M07-A9 document of the Clinical and Laboratory Standards Institute (CLSI) was used for antibacterial study,[55] and the EDef 7.1 document published by EUCAST was used for the antifungal study.[56] For both activity studies, the detailed procedures were explained in previous studies.[57],[58]
# [1] = system: Candida parapsilosis ATCC 22019; assay: as above; assay type: cell-based
# Description: as §1
# [2] = system: Candida albicans ATCC 24433; assay: as above; assay type: cell-based
# Description: as §1
# NIH/3T3 cells = assay: Cytotoxicity on NIH/3T3 healthy cell line; assay type: cell-based; details: Mus musculus, NIH3T3, 24 h incubation
# Experimental: NIH/3T3 cells were incubated in Dulbecco’s modified Eagle’s medium (DMEM) (Sigma-Aldrich, St. Louis, MO), added with fetal calf serum, penicillin (100 IU/mL), streptomycin ([…]), and 7.5% NaHCO3 at 37 °C in a humidified atmosphere of 95% air and 5% CO2. NIH/3T3 cells were seeded into the 96-well plates at a density of 1 × 10^4 cells. After 24 h of incubating period, the culture media were removed, and test compounds were added. After 24 h of incubation period, colorimetric measurements were performed by a microplate reader (Biotek) at 540 nm. Inhibition % at all concentrations was determined using the formula below, and the IC50 values were calculated from a dose–response curve obtained by plotting the percentage inhibition versus the log concentration with the use of Microsoft Excel 2013.
# C. glabrata ATCC 90030 = assay: Anticandidal broth microdilution (EUCAST EDef 7.1), MIC90; assay type: cell-based, Candida glabrata; details: Nakaseomyces glabratus, ATCC90030, C. glabrata ATCC 90030
# Description: as §1
# [3] = system: Salmonella typhimurium ATCC 13311; assay: Antibacterial broth microdilution (CLSI M07-A9), MIC90; assay type: cell-based; details: Salmonella enterica; S. typhimurium ATCC 13311
# Description: (§2) The broth microdilution procedure specified in the M07-A9 document of the Clinical and Laboratory Standards Institute (CLSI) was used for antibacterial study,[55] and the EDef 7.1 document published by EUCAST was used for the antifungal study.[56] For both activity studies, the detailed procedures were explained in previous studies.[57],[58]
# E. coli ATCC 25922 = assay: as above; assay type: cell-based; details: Escherichia coli, ATCC25922
# Description: as §2
# [4] = system: Staphylococcus aureus ATCC 6538; assay: as above; assay type: cell-based; details: S. aureus ATCC 6538
# Description: as §2
# [5] = system: Klebsiella pneumoniae NCTC 9633; assay: as above; assay type: cell-based; details: NCTC9633, K. pneumoniae NCTC 9633
# Description: as §2
# [6] = system: Escherichia coli ATCC 35218; assay: as above; assay type: cell-based; details: Escherichia coli, ATCC35218; E. coli ATCC 35218
# Description: as §2
# [7] = system: methicillin-resistant S. aureus (MRSA) (clinical isolate); assay: as above; assay type: cell-based; details: Staphylococcus aureus
# Description: as §2
# [8] = target: T1, Lanosterol 14α-demethylase (LMD, CYP51A1) (Candida glabrata, UniProt P50859); assay: LDM (CYP51A1) inhibition by LC-MS-MS quantification of ergosterol level; assay type: cell-based; details: for inhibition at 0.06 µg/mL / inhibition at 0.24 µg/mL / inhibition at 0.98 µg/mL: read-out: CYP51A1 Inhibition%
# T1 construct: tested against Candida strains via the determination of ergosterol production; endogenous in cells; host or cells: C. glabrata (ATCC 90030)
# T1 sequence (P50859 whole entry): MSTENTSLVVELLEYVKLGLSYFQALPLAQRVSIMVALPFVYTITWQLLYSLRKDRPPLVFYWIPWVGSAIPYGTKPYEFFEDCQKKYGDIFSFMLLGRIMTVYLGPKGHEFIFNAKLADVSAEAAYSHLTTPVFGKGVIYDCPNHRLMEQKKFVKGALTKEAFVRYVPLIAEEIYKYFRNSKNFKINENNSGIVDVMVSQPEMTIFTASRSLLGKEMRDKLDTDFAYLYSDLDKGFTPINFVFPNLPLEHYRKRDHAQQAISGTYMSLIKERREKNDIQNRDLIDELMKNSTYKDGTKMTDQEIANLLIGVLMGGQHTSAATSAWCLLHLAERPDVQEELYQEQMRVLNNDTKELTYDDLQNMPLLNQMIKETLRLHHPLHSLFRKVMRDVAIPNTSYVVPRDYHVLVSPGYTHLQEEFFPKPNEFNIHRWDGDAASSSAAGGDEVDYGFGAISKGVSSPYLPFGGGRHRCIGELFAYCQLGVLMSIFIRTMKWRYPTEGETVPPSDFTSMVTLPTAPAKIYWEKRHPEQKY
# Experimental: (§3) The activity of the target compounds was tested against Candida strains via the determination of ergosterol production.
# (§4) Ergosterol level was determined using the extract of total sterols from C. albicans (and its other species) following the method described by Breivik and Owades.[63] Quantification of the ergosterol level in this extract was carried out by the recently described method.[58],[64]−[66] According to these described studies, in the current work, compounds 4b, 4e, 4f, and 4h–m were undertaken to investigate their action mechanism. Thus, the LC-MS-MS-based method that quantifies the ergosterol level was applied. […]. Ergosterol quantity in negative control samples was regarded as 100%. All concentrations were analyzed in quadruplicate, and the results were expressed as mean ± standard deviation (SD).
# [9] = system: Lanosterol 14α-demethylase (LMD, CYP51A1); assay: as above; assay type: cell-based
# Experimental: as §3, §4
# [10] = Pichia kudriavzevii, ATCC6258, C. krusei ATCC 6258, read-out: MIC90
# [11] = Lodderomyces parapsilosis, ATCC22019, C. parapsilosis ATCC 22019, read-out: MIC90
# [12] = Candida albicans, ATCC24433, C. albicans ATCC 24433, read-out: MIC90
# [13] = Staphylococcus aureus, ATCC6538, read-out: MIC90
SMILES,MIC90 (Candida krusei ATCC 6258; [10]),"MIC90 [1, 11]","MIC90 [2, 12]",IC50 (NIH/3T3 cells),MIC90 (C. glabrata ATCC 90030),melting point,MIC90 [3],MIC90 (E. coli ATCC 25922),"MIC90 [4, 13]",MIC90 [5],MIC90 [6],MIC90 [7],"CYP51A1 Inhibition% ([9]; C. krusei, 0.06 μg/mL)","CYP51A1 Inhibition% ([9]; C. krusei, 0.24 μg/mL)","CYP51A1 Inhibition% ([9]; C. krusei, 0.98 μg/mL)",also measured
COc1ccc2nc(Cl)c(/C=N/Nc3nc(-c4ccc(F)cc4)cs3)cc2c1 [4a],31.2 µg/mL,15.6 µg/mL,> 1000 µg/mL,39.8 ± 1.45 µM,1.95 µg/mL,193 to 195 °C,> 1000 µg/mL,> 1000 µg/mL,> 1000 µg/mL,> 1000 µg/mL,> 1000 µg/mL,> 1000 µg/mL,,,,
COc1ccc2nc(Cl)c(C=NNc3nc(-c4ccc(Cl)cc4)cs3)cc2c1 [4b],31.2 µg/mL,31.2 µg/mL,> 1000 µg/mL,14.7 ± 0.34 µM,< 0.06 µg/mL,195 to 197 °C,> 1000 µg/mL,> 1000 µg/mL,> 1000 µg/mL,> 1000 µg/mL,> 1000 µg/mL,> 1000 µg/mL,,,,"effect on ergosterol production / LMD enzyme inhibition (in words) ([8]; C. glabrata): showed their anticandidal activity via LMD enzyme inhibition; inhibition at 0.06 µg/mL ([8]; C. glabrata, 0.06 μg/mL): 36.2 ± 0.965%; inhibition at 0.24 µg/mL ([8]; C. glabrata, 0.24 μg/mL): 51.8 ± 1.61%; inhibition at 0.98 µg/mL ([8]; C. glabrata, 0.98 μg/mL): 60.2 ± 2.1%"
COc1ccc2nc(Cl)c(/C=N/Nc3nc(-c4ccc([N+](=O)[O-])cc4)cs3)cc2c1 [4c],31.2 µg/mL,31.2 µg/mL,> 1000 µg/mL,31.6 ± 0.87 µM,62.5 µg/mL,245 to 253 °C,> 1000 µg/mL,> 1000 µg/mL,> 1000 µg/mL,> 1000 µg/mL,> 1000 µg/mL,> 1000 µg/mL,,,,
COc1ccc2nc(Cl)c(/C=N/Nc3nc(-c4ccccc4)cs3)cc2c1 [4d],1.95 µg/mL,15.6 µg/mL,1.95 µg/mL,1.26 ± 0.033 µM,1.95 µg/mL,220 to 222 °C,> 1000 µg/mL,> 1000 µg/mL,> 1000 µg/mL,> 1000 µg/mL,> 1000 µg/mL,> 1000 µg/mL,,,,
COc1ccc2nc(Cl)c(C=NNc3nc(-c4cccc(Cl)c4)cs3)cc2c1 [4h],≤ 0.06 µg/mL,125 µg/mL,> 1000 µg/mL,14.5 ± 0.57 µM,31.2 µg/mL,200 to 202 °C,> 1000 µg/mL,> 1000 µg/mL,> 1000 µg/mL,> 1000 µg/mL,> 1000 µg/mL,> 1000 µg/mL,45.530 ± 0.961%,60.184 ± 1.985%,67.651 ± 1.736%,effect on ergosterol production / LMD enzyme inhibition (in words) ([9]; C. krusei): showed their anticandidal activity via LMD enzyme inhibition
COc1ccc2nc(Cl)c(/C=N/Nc3nc(-c4ccc5ccccc5c4)cs3)cc2c1 [4n],1.95 µg/mL,1.95 µg/mL,3.91 µg/mL,> 1000 µM,1.95 µg/mL,199 to 202 °C,> 1000 µg/mL,> 1000 µg/mL,62.5 µg/mL,> 1000 µg/mL,> 1000 µg/mL,> 1000 µg/mL,,,,
"O=C(N[C@H](CO)[C@H](O)c1ccc([N+](=O)[O-])cc1)C(Cl)Cl [chloramphenicol, reference compound]",,,,,,,31.2 µg/mL,15.6 µg/mL,≤ 1.95 µg/mL,31.2 µg/mL,31.2 µg/mL,31.2 µg/mL,,,,MIC90 ([4]; listed as RF-1): ≤1.95 µg/mL
"OC(Cn1cncn1)(Cn1cncn1)c1ccc(F)cc1F [fluconazole, reference compound]",,,,,,,,,,,,,43.378 ± 0.937%,60.132 ± 2.042%,72.523 ± 1.961%,"inhibition at 0.06 µg/mL [8]: 46.3 ± 0.936%; inhibition at 0.24 µg/mL [8]: 63.7 ± 2.19%; inhibition at 0.98 µg/mL [8]: 70.1 ± 2.05%; CYP51A1 Inhibition% ([9]; C. parapsilosis, 0.06 μg/mL): 49.579 ± 1.733%; CYP51A1 Inhibition% ([9]; C. parapsilosis, 0.24 μg/mL): 61.533 ± 1.282%; CYP51A1 Inhibition% ([9]; C. parapsilosis, 0.98 μg/mL): 73.204 ± 2.031%"
"CC(=O)N1CCN(c2ccc(OCC3COC(Cn4ccnc4)(c4ccc(Cl)cc4Cl)O3)cc2)CC1 (stereo not shown) [ketoconazole, reference compound]",< 0.06 µg/mL,< 0.06 µg/mL,< 0.06 µg/mL,,0.24 µg/mL,,,,,,,,52.865 ± 1.662%,60.630 ± 2.875%,75.647 ± 2.749%,"MIC90 (Candida krusei ATCC 6258; C. krusei ATCC 6258, listed as Rf): ≤0.06 µg/mL; MIC90 ([1]; C. parapsilosis ATCC 22019, listed as Rf): ≤0.06 µg/mL; MIC90 ([2]; C. albicans ATCC 24433, listed as Rf): ≤0.06 µg/mL; inhibition at 0.06 µg/mL ([8]; C. glabrata, 0.06 μg/mL): 50.4 ± 1.16%; inhibition at 0.24 µg/mL ([8]; C. glabrata, 0.24 μg/mL): 61.9 ± 1.83%; inhibition at 0.98 µg/mL ([8]; C. glabrata, 0.98 μg/mL): 72.8 ± 2.87%; CYP51A1 Inhibition% ([9]; C. parapsilosis, 0.06 μg/mL): 55.348 ± 1.091%; CYP51A1 Inhibition% ([9]; C. parapsilosis, 0.24 μg/mL): 63.419 ± 2.074%; CYP51A1 Inhibition% ([9]; C. parapsilosis, 0.98 μg/mL): 71.864 ± 2.229%"
